Here are results for 5 molecules from US11795213B2, “Methods and compositions for treating celiac disease” (Beth Israel Deaconess Medical Center, Inc., priority 2010, dated 2023).

One assay concerns THP-1. The experiment in a line: Cytokine secretion by stimulated THP-1 monocytic cells (ELISA). Format: cell-based, human. The text has this:
(§1) To examine how far gliadin elicits innate immune responses, we stimulated the human monocytic cell lines THP-1 and U937 with different concentrations of gliadin digested with pepsin and trypsin (PT gliadin) and measured secretion of proinflammatory cytokines in the supernatant. A digest of zein, partly homolgous storage proteins from corn that lack toxicity for patients with celiac disease, served as negative control. […] To rule out LPS contamination as trigger of innate responses, gliadin, LPS, and TNF-α were digested with proteinase K, completely digesting and abrogating all peptide-related activities.
(§2) THP-1, U937, HEK-293 (all from ATCC, Manassas, VA), and HEK-293 cells stably transfected with the TLR4-CD14-MD2 complex (Invivogen) were cultured in complete RPM or DMEM (Cellgro, Manassas, VA) supplemented with penicillin/streptomycin and 10% fetal calf serum at 37° C. in a 5% CO2 atmosphere.
(§3) For stimulation cells were seeded on polystyrene wells at a density of 1×10^6/ml. Unless otherwise stated supernatants were harvested after a 16 hr incubation with various stimulants.
After proteinase K inactivation by boiling for 5 minute the digests were used for cell stimulation.
(§4) The concentration of IL-8, TNF-α, MCP-1, RANTES, and mouse IL-8 (KC) in cell culture supernatants and serum samples was determined using validated ELISAs (IL-8, hTNFα: BD Pharmingen, San Jose, CA; MCP-1, hRANTES, mRANTES, KC: R&D Systems, (Minneapolis, MN; mTNFα: eBioscience, San Diego, CA), according to the manufacturer's protocols.

Assay [1] has as its system peritoneal macrophages of C3H/HeJ mice that lack TLR4 responses. The experiment in a line: Cytokine secretion by peritoneal macrophages of TLR4 deficient C3H/HeJ versus C3H/HeOuJ mice. In kind it is cell-based, mouse. The settings on record: TLR4 deficient C3H/HeJ compared to syngenic C3H/HeOuJ TLR4 competent mice. As to the method:
Since MyD88 transmits signals from several TLRs, we studied peritoneal macrophages of C3H/HeJ mice that lack TLR4 responses due to a spontaneous point mutation in the TLR4 gene.
Murine resident peritoneal macrophages were isolated by peritoneal lavage using a 3 ml syringe and 18 G needles. Three 3 ml of sterile PBS was injected into the peritoneal cavity and reaspirated after gentle massage of the abdomen. For further purification MACS separation for CD11b positive cells was done according to the manufacturer's protocol (Miltenyi).
as §3
C3H/HeJ, C3H/HeOuJ and Rag1−/− mice were obtained from The Jackson Laboratory (Bar Harbour, ME). The MyD88−/− mice were a kind gift from S. Akira, (Osaka University, Osaka, Japan). Congenic C57BL/6J mice served as experimental controls and were bred under the same conditions in the same facility. All experiments were done with mice at age 5-7 weeks.
as §4

The target in assay [2] is T1, human TLR4-CD14-MD2-complex (Homo sapiens, UniProt O00206+Q9Y6Y9).
T1 construct: host or cells: HEK-293 (stably transfected)
Put plainly: IL-8 secretion by HEK-293 cells transfected with TLR4-CD14-MD2 complex. Format: cell-based. The following applies: for IL-8 secretion: TLR4-CD14-MD2 transfected HEK-293; for stimulatory activity after additional purification using an endotoxin depletion column: 5 μg/ml, IL-8 after 24 h, FIG. 9C. The method, then: as §2, §3, §4
While sufficient CM3 protein was secreted into the media, 0.19 ATI had to be isolated from the detergent-soluble fraction. Briefly, HEK-cells expressing 0.19 were washed with ice cold-PBS, resuspended in 50 ml of buffer C for 15 min on ice, and centrifuged at 14,000 rpm for 20 min at 4° C. Thus, the solubilized 0.19 and soluble CM3 were bound to Flag-M2 agarose (Sigma-Aldrich) pre-equilibrated with buffer C by gentle shaking for 3 h at 4° C., washed three times with buffer C, and further washed three times with buffer D (Buffer C without detergents). Bound ATIs were eluted with TBS [pH 7.4] containing Flag peptide (Sigma-Aldrich). In order to rigorously exclude endotoxin, eluted CM3 and 0.19 were also applied to an entotoxin removal column (Norgen Biotek corp., Thorold, ON, Canada). ATIs were the used at 5 μg/ml to stimulate HEK-293 cells stably transfected with the TLR4-CD14-MD2 complex, and IL-8 secretion was quantified after 24 h using the IL-8 ELISA as described above.

The test system of another assay is U937. Put plainly: Cytokine secretion by stimulated U937 monocytic cells (ELISA). In kind it is cell-based, human. The following applies: even at 40 μg/ml.
Description: as §1, §2, §3, §4

Assay [3] relates to intestinal epithelial cell lines (HT29, Caco-2 and T84). The experiment in a line: Cytokine secretion by intestinal epithelial cell lines. In kind it is cell-based. The settings on record: even at 40 μg/ml. As to the method:
as §3, §4

The subject of another assay is celiac biopsies. The following applies: shown previously; cited from earlier work.
Another assay has as its system TLR4-pathway. Put plainly: Downstream signaling by CM3 and 0.19 overexpression in TLR4-CD14-MD2 expressing HEK-293 cells (Western blot). In kind it is cell-based. The following applies: overexpression in TLR4/MD2/CD14 expressing HEK-293 cells. The method, then:
FIG. 9D is a western blot showing expression of CM3 and 0.19 in TLR4-CD14-MD2 expressing HEK-293 cells (HEK-TLR4) induces downstream signaling of the canonical (p-NF-κB/p65) and the alternative (p-IRF3) pathways. Western blots of whole cell lysates (50 μg protein).
HEK-293 cells stably expressing TLR4-CD14-MD2 were induced to express CM3 or 0.19, respectively, followed by cell lysis in buffer C. Lysates were cleared by centrifugation at 14,000 rpm for 20 min at 4° C., and 50 μg of protein run on a 15% SDS-gel and subjected to Western blotting to analyze activation of the canonical and the alternative (p-IRF3) pathways using antibodies to phosphorylated and unphosphorylated (p-NF-κB/p65) and IRF3 (all from Cell Signaling Technology, Danvers, MA).

For assay [4], the system named is human monocyte-derived dendritic cells (DC). The experiment in a line: Cytokine secretion by human monocyte-derived dendritic cells (ELISA). In kind it is cell-based. The method, then: For isolation of peripheral monocytes 40 ml blood was obtained from 11 patients with celiac disease during their diagnostic workup (median 37 years, range 18-59 years), after prior informed consent Eight patients were on gluten free diet and in clinical remission, three patients were newly diagnosed and therefore on a regular gluten containing diet Control monocytes were from the buffy coat of leukopheresis concentrates of anonymous blood donors. Whole EDTA blood or leukapheresis concentrates were subjected to density gradient centrifugation over Ficoll-Hypaque (GE Healthcare, Pittsburgh, PA) and CD14-positive monocytes purified by MACS separation according to the manufacturer's protocol (Miltenyi, Bergisch Gladbach, Germany). For generation of dendritic cells, monocytes were cultured in RPMI supplemented with 10% fetal calf serum, 200 U/ml rhIL-4 and 300 U/ml rhGM-CSF (both from PeproTech, Rocky Hill, NJ) for 6-8 days.
For stimulation cells were seeded on polystyrene wells at a density of 1×10^6/ml. […]
as §4

T1 sequence (O00206 24-839): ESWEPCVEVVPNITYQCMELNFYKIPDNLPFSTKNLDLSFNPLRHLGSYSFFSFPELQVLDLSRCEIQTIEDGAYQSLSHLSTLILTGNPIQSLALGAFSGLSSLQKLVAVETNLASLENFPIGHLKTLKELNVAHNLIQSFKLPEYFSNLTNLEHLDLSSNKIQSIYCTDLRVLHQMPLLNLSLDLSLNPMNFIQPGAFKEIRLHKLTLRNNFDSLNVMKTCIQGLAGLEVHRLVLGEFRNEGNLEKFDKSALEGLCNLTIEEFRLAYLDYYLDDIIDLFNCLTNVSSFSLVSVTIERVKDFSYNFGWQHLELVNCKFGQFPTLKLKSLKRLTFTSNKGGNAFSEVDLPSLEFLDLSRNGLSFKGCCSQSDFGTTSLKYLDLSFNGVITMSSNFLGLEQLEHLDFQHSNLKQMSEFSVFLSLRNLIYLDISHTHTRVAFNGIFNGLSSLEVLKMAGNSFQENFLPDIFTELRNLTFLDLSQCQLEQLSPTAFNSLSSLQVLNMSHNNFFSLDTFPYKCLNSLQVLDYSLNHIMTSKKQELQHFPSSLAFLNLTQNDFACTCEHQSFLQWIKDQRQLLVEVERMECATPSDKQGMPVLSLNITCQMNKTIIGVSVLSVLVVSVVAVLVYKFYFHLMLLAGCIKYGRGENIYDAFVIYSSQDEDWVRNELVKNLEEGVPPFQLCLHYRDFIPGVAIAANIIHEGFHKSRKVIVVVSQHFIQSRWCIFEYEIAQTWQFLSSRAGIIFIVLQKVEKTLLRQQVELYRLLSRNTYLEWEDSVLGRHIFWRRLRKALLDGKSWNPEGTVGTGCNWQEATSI
T1 sequence (Q9Y6Y9 17-160 limits assumed): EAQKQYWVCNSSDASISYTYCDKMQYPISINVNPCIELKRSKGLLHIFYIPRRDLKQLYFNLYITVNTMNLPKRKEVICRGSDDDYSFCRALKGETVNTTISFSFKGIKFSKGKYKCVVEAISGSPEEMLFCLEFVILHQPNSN

For the molecule TNF-α, the “IL-8 induction after proteinase K digestion of the stimulant” value in the assay with THP-1 (20 μg/ml proteinase K, 4 hrs at 56° C., FIG. 1F) was “lost its stimulatory capacity”.
With “N-Palmitoyl-S-[2,3-bis(palmitoyloxy)-(2RS)-propyl]-[R]-cysteinyl-[S]-seryl-[S]-lysyl-[S]-lysyl-[S]-lysyl-[S]-lysine x3 HCl [Pam3CSK4]”, in assay [1], the “KC (IL-8) secretion” value is “equally high amounts” and the TNF-α secretion entry is “equally high amounts”. Besides, the IL-8 secretion entry in assay [2] is “absence of IL-8 induction”.
As for “LGQQQPFPPQQPY [p31-43, Peptide p31-43 of α-gliadin]”, the IL-8 secretion result (in the assay with THP-1 (even at 40 μg/ml); in the assay on U937; in assay [3]) was “did not elicit secretion” throughout. In addition, the MCP-1 secretion result (in the assay with THP-1 (even at 40 μg/ml); in the assay on U937; in assay [3]) was “did not elicit secretion” throughout. For the same molecule, the TNF-α secretion entry (in the assay on THP-1 (even at 40 μg/ml); with U937; in assay [3]) was “did not elicit secretion” in each case. For the same molecule, the IL-15 secretion entry with celiac biopsies is “increases IL-15 secretion”.

B1: 0.19: recombinant flag-tagged wheat alpha amylase inhibitor 0.19 (SEQ ID NO: 2) expressed in HEK-293 cells (protein, listed as Triticum aestivum)
chain: SGPWMCYPGQAFQVPALPACRPLLRLQCNGSQVPEAVLRDCCQQLAHISEWCRCGALYSMLDSMYKEHGAQEGQAGTGAFPRCRREVVKLTAASITAVCRLPIVVDASGDGAYVCKDVAAYPD
modifications: FLAG tag
In the case of B1, in assay [2], the “stimulatory activity after additional purification using an endotoxin depletion column” value is listed as “maintained” and the IL-8 secretion entry is “stimulated”. Moreover, in the assay with TLR4-pathway, the “alternative TLR4-pathway (p-IRF3)” value was “strongly induced” and the “canonical TLR4-pathway (p-NF-κB/p65)” value is reported as “strongly induced”.

B2: CM3: recombinant flag-tagged wheat alpha amylase inhibitor CM3 (SEQ ID NO: 1) expressed in HEK-293 cells (protein)
chain: MACKSSCSLLLLAAVLLSVLAAASASGSCVPGVAFRTNLLPHCRDYVLQQTCGTFTPGSLPEWMTSASIYSPGKPYLAKLYCCQELAEISQQCRCEALRYFIALPVPSQPVDPRSGNVGESGLIDLPGCPREMQWDFVRLLVAPGQCNLATIHNVRYCPAVEQPLWIDYKDDDDK
modifications: FLAG tag
Consider B2, for which, in assay [4], the IL-8 secretion result is recorded as “upregulated IL-8 secretion”. In assay [2], the “stimulatory activity after additional purification using an endotoxin depletion column” value is “maintained” and the IL-8 secretion result is “stimulated”. Further, in the assay on TLR4-pathway, the “alternative TLR4-pathway (p-IRF3)” value is “strongly induced” and the “canonical TLR4-pathway (p-NF-κB/p65)” value was “strongly induced”.
